Among the data in patent publication US10947252B2, “Inhibitors of KEAP1-Nrf2 protein-protein interaction” (Janssen Pharmaceutica NV, priority 2018, dated 2021) are EC50 and Kd values, retold here.

The subject of test [1] is Glo-Response ARE-luc2P HEK293 cell line. The experiment in a line: ARE luciferase reporter cell-based assay.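 Also: luciferase signal tracks Nrf2 activation of the ARE once compounds disrupt KEAP1-Nrf2 binding, read with One-Glo reagent, DMSO serving as low control.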 As to conditions: Homo sapiens, HEK293, 24 h, average of results obtained. (A reporter such as luciferase makes a cellular process visible.)
Method: The ARE assay utilizes a luciferase reporter cell line where the signal is proportional to NrF2 activation of the ARE. The cell line is commercially available from Promega and was prepared by stably transfecting HEK293 cells with a vector (pGL4.11) which contains the ARE response element upstream of a minimal promoter. The promoter drives expression of luc2 firefly luciferase gene. Upon disruption of KEAP1-Nrf2 binding by compound, Nrf2 translocates into the nucleus where it binds to the ARE and activates transcription of luciferase.
The materials used in this ARE assay are as follows: Glo-Response ARE-luc2P HEK293 cell line and One-Glo Luciferase Assay System were purchased from Promega (Madison, Wis.). Dulbecco's Modified Eagle medium ((DMEM), low glucose, GlutaMAX, pyruvate), fetal bovine serum (certified, heat inactivated), hygromycin B, Dulbecco's phosphate-buffered saline were purchased from Life Technologies (Grand Island, N.Y.). Penicillin, streptomycin solution (100×) and 0.05% trypsin-EDTA were purchased from Corning (Manassas, Va.). DMSO was purchased from EMD Millipore.
The ARE assay protocol is as follows: cells were maintained in growth medium (DMEM+10% FBS, 200 μg/mL hygromycin B, p-s) between 20-90% confluency by splitting twice per week. One day before the assay, cells were trypsinized, counted to determine viable cell count, and re-suspended in assay medium (DMEM+10% FBS, p-s) at 250,000 cells/mL. […] 100% DMSO was used as the low control. A 11-point dose series of the control compound was included on every plate. Compounds were spotted to an intermediate plate (Greiner #781280 V-bottom 384 well plate) using the Echo acoustic dispenser (Labscyte San Jose, Calif.). Spot size was 240 nL.
On the day of the assay, 60 mL per well of assay medium was added to the pre-spotted plate to make 2× compound stocks using the Combi (Thermo Waltham, Mass.). Compound and medium were mixed on the Janus and 20 mL of 2×compound stock was added to the cell plate which already contained 20 mL of assay medium from cell plating. […] The plates were returned to the tissue culture incubator for 24 hours.
The next day, luciferase activity was measured according to the manufacturer's protocol for One-Glo luciferase reagent. The plates were removed from the incubator and allowed to equilibrate to room temperature for 30 min. Forty microliters of One-Glo reagent (equilibrated to room temperature) was added per well using the Combi. The plates were mixed on an orbital shaker for 3 min. Luminescence was read on the BMG Pherastar multiplate reader (Cary, N.C.) using the luminescence protocol (1 sec interval).
The dose-response data were analyzed in Genedata Screener using 4PL nonlinear regression model. Raw luminescence counts as well as normalized values were used for data analysis.
Test [2] has as its target Kelch domain of human KEAP1 (321-624 aa) (Homo sapiens (Human), UniProt Q14145). The experiment in a line: KEAP1 KELCH ThermoFluor binding assay.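 Also: Ligand-induced melting temperature shift of E. coli-expressed KEAP1 Kelch protein, Kd estimated from concentration-response curves of ΔTm.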 As to conditions: KEAP Kelch […], 1,8-ANS, pH 7.0, average of results obtained, read-out: Tf Kd.

Bounds are passed on as bounds.

Kelch domain of human KEAP1 (321-624 aa), sequence (Q14145 321-624): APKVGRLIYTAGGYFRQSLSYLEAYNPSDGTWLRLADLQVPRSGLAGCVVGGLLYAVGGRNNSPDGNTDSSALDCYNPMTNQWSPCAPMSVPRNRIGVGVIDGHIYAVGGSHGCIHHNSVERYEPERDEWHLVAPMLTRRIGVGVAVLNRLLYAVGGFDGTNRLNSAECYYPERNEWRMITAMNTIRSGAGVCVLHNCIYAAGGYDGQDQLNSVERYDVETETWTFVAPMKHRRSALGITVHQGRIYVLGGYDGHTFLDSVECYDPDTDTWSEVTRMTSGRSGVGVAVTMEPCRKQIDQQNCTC

As a reminder, the EC50 is the concentration giving half of the maximal effect. In general, Kd refers to the concentration at which binding is half-saturated. Consider `Cc1ccc([C@H](CC(=O)O)c2cc(OC3CC3)c3c(c2)nnn3C)cc1CN1C[C@H]2CCCCN2c2ncccc2S1(=O)=O` (single isomer, unassigned) [Example 405, (*S)-3-(7-Cyclopropoxy-1-methyl-1H-benzo[d][1,2,3]triazol-5-yl)-3-(3-(((*R)-5,5-dioxido-7,7a,8,9,10,11-hexahydro-6H-dipyrido[2,1-d:2′,3′-f][1,2,5]thiadiazepin-6-yl)methyl)-4-methylphenyl)propanoic Acid], for which the EC50 in test [1] is 7.4 nM. Also, the Kd in test [2] is under 1 nM.

`CCn1nnc2c(C)c(C(CC(=O)O)c3ccc(C)c(CN4CC5(COC5)Oc5ncccc5S4(=O)=O)c3)ccc21` (stereo not shown) [Example 252, 3-(3-((1′,1′-Dioxidospiro[oxetane-3,4′-pyrido[2,3-b][1,4,5]oxathiazepin]-2′(3′H)-yl)methyl)-4-methylphenyl)-3-(1-ethyl-4-methyl-1H-benzo[d][1,2,3]triazol-5-yl)propanoic Acid]: the EC50 in test [1] came out at 21 nM. In addition, the Kd in test [2] was under 1 nM.

For the molecule `Cc1ccc([C@H](CC(=O)O)c2ccc3c(nnn3CC3CC3)c2C(F)F)cc1CN1CC2CCCN2c2ncccc2S1(=O)=O` (stereo in doubt) [Example 66, (*S)-3-(1-(Cyclopropylmethyl)-4-(difluoromethyl-1H-benzo[d][1,2,3]triazol-5-yl)-3-(3-((R-5,5-dioxido-7a,8,9,10-tetrahydropyridi[2,3-f]pyrrolo[2,1-d][1,2,5]thiadiazepin-6(7H)-yl)methyl)-4-methylphenyl)propanoic Acid], it took 260 nM to reach a half-maximal effect in test [1] (EC50). Further, the Kd in test [2] is 1 nM.

`Cc1cnc2c(c1)S(=O)(=O)N(Cc1cc([C@@H](c3ccn4c(C(F)F)nnc4c3C)C(C)(C)C(=O)O)ncc1C)CC1(CC1)O2` (single isomer, unassigned) [Example 332, (*S)-3-(3-(Difluoromethyl)-8-methyl-[1,2,4]triazolo[4,3-a]pyridin-7-yl)-2,2-dimethyl-3-(5-methyl-4-((8′-methyl-1′,1′-dioxidospiro[cyclopropane-1,4′-pyrido[2,3-b][1,4,5]oxathiazepin]-2′(3′H)-yl)methyl)pyridin-2-yl)propanoic acid] gave an EC50 in test [1] of 25.6 nM. In test [2], the Kd was under 1 nM.

Turning to `Cc1ccc([C@@H](c2ccn3c(C(F)(F)F)nnc3c2C)C(C)(C)C(=O)O)cc1CN1CC2(CCOCC2)Oc2nc(OCCN3CCOCC3)ccc2S1(=O)=O` (single isomer, unassigned) [Example 47, (*S)-2,2-Dimethyl-3-(4-methyl-3-((7′-(2-morpholinoethoxy)-1′,1′-dioxido-2,3,5,6-tetrahydrospiro[pyran-4,4′-pyrido[2,3-b][1,4,5]oxathiazepin]-2′(3′H)-yl)methyl)phenyl)-3-(8-methyl-3-trifluoromethyl)-[1,2,4]triazolo[4,3-a]pyridine-7-yl)propanoic Acid], it took 17.9 nM to reach a half-maximal effect in test [1] (EC50). Besides, the Kd in test [2] is under 1 nM.

For the molecule `Cc1ccc([C@@H](CC(=O)O)c2ccn3c(C(F)(F)F)nnc3c2C)cc1CN1CC(C)(C)Oc2ccccc2S1(=O)=O` (single isomer, unassigned) [Example 286, (*R)-3-(3-((4,4-Dimethyl-1,1-dioxido-3,4-dihydro-2H-benzo[b][1,4,5]oxathiazepin-2-yl)methyl)-4-methylphenyl)-3-(8-methyl-3-(trifluoromethyl)-[1,2,4]triazolo[4,3-a]pyridin-7-yl)propanoic Acid], the EC50 in test [1] came out at 504 nM. The Kd in test [2] was 3.39 nM.

`CCn1nnc2c(C)c(C(CC(=O)O)c3ccc(C)c(CN4CC5(CCOCC5)Oc5ccc(F)cc5S4(=O)=O)n3)ccc21` (racemic) [Example 417, 3-(1-Ethyl-4-methyl-1H-benzo[d][1,2,3]triazol-5-yl)-3-(6-((8-fluoro-1,1-dioxido-2′,3′,5′,6′-tetrahydrospiro[benzo[b][1,4,5]oxathiazepine-4,4′-pyran]-2(3H)-yl)methyl)-5-methylpyridin-2-yl)propanoic acid] returned an EC50 in test [1] of 1.77 nM. The Kd in test [2] is under 1 nM.

In test [1], `Cc1ccc([C@H](CC(=O)O)c2ccn3c(C(F)(F)F)nnc3c2C)cc1CN1C[C@H]2CCCCN2c2nc(C(N)=O)ccc2S1(=O)=O` (single isomer, unassigned) [Example 205, (*S)-3-(3-(((*R)-2-Carbamoyl-5,5-dioxido-7,7a,8,9,10,11-hexahydro-6H-dipyrido[2,1-d:2′,3′-f][1,2,5]thiadiazepin-6-yl)methyl)-4-methylphenyl)-3-(8-methyl-3-(trifluoromethyl)-[1,2,4]triazolo[4,3-a]pyridin-7-yl)propanoic Acid] registered an EC50 of 130 nM. In test [2], the Kd was under 1 nM.

Molecule `Cc1ccc(C(CC(=O)O)c2ccn3c(C(F)F)nnc3c2C)cc1CN1C[C@@H]2CCCN2c2ncc(C#N)cc2S1(=O)=O` (mixture of isomers) [Example 542, 3-(3-(((S)-3-Cyano-5,5-dioxido-7a,8,9,10-tetrahydropyrido[2,3-f]pyrrolo[2,1-d][1,2,5]thiadiazepin-6(7H)-yl)methyl)-4-methylphenyl)-3-(3-(difluoromethyl)-8-methyl-[1,2,4]triazolo[4,3-a]pyridin-7-yl)propanoic Acid] had an EC50 in test [1] of 59.6 nM. The Kd in test [2] is under 1 nM.

In test [1], `Cc1ccc([C@@H](c2ccc3c(nnn3CC3CC3)c2C)C(C)(C)C(=O)O)cc1CN1CC2(CCOCC2)Oc2ncccc2S1(=O)=O` (single isomer, unassigned) [Example 428, (S*)-3-(1-(cyclopropylmethyl)-4-methyl-1H-benzo[d][1,2,3]triazol-5-yl)-3-(3-((1′,1′-dioxido-2,3,5,6-tetrahydrospiro[pyran-4,4′-pyrido[2,3-b][1,4,5]oxathiazepin]-2′(3′H)-yl)methyl)-4-methylphenyl)-2,2-dimethylpropanoic Acid] returned an EC50 of 399 nM. In test [2], the Kd was under 1 nM.

In test [1], `Cc1cc2cc([C@H](CC(=O)O)c3ccc(C)c(CN4C[C@H]5CCCCN5c5ncccc5S4(=O)=O)c3)n(C)c2nn1` (single isomer, unassigned) [Example 445, (*R)-3-(3,7-Dimethyl-7H-pyrrolo[2,3-c]pyridazin-6-yl)-3-(3-(((*R)-5,5-dioxido-7,7a,8,9,10,11-hexahydro-6H-dipyrido[2,1-d:2′,3′-f][1,2,5]thiadiazepin-6-yl)methyl)-4-methylphenyl)propanoic Acid] displayed an EC50 of 716 nM. The Kd in test [2] was under 1 nM.

In test [1], `CCn1nnc2c(C)c([C@H](c3cnc(C)c(CN4CC5(CCOCC5)Oc5ncccc5S4(=O)=O)c3)C(C)(C)C(=O)O)ccc21` (single isomer, unassigned) [Example 60, (*R)-3-(5-((1′,1′-Dioxido-2,3,5,6-tetrahydrospiro[pyran-4,4′-pyrido[2,3-b][1,4,5]oxathiazepin]-2′(3′H)-yl)methyl)-6-methylpyridin-3-yl)-3-(1-ethyl-4-methyl-1H-benzo[d][1,2,3]triazol-5-yl)-2,2-dimethylpropanoic Acid] gave an EC50 of 12300 nM. Besides, the Kd in test [2] came to 41200 nM.

In turn, `CC[C@@H]1CN(Cc2nc(C(CC(=O)O)c3ccc4c(nnn4C4CC4)c3C)ccc2C)S(=O)(=O)c2cccnc2O1` (mixture of isomers) [Example 174, (R/S)-3-(1-Cyclopropyl-4-methyl-1H-benzo[d][1,2,3]triazol-5-yl)-3-(6-(((R)-4-ethyl-1,1-dioxido-3,4-dihydro-2H-pyrido[2,3-b][1,4,5]oxathiazepin-2-yl)methyl)-5-methylpyridin-2-yl)propanoic Acid] gave an EC50 in test [1] of 15 nM. The dissociation constant Kd in test [2] was under 1 nM.

Consider `Cc1ncc([C@@H](c2ccc3c(nnn3C3CC3)c2C)C(C)(C)C(=O)O)cc1CN1CC2(COC2)Oc2ncccc2S1(=O)=O` (single isomer, unassigned) [Example 613, (*R)-3-(1-Cyclopropyl-4-methyl-1H-benzo[d][1,2,3]triazol-5-yl)-3-(5-((1′,1′-dioxidospiro[oxetane-3,4′-pyrido[2,3-b][1,4,5]oxathiazepin]-2′(3′H)-yl)methyl)-6-methylpyridin-3-yl)-2,2-dimethylpropanoic Acid], for which a half-maximal response in test [1] (EC50) required 33.2 nM. The Kd in test [2] is under 1 nM.

On to `Cc1cnc2c(c1)S(=O)(=O)N(Cc1cc([C@@H](c3ccn4c(C(F)F)nnc4c3C)C(C)(C)C(=O)O)ccc1C)CC1(CC1)O2` (single isomer, unassigned) [Example 560, (*S)-3-(3-(Difluoromethyl)-8-methyl-[1,2,4]triazolo[4,3-a]pyridin-7-yl)-2,2-dimethyl-3-(4-methyl-3-((8′-methyl-1′,1′-dioxidospiro[cyclopropane-1,4′-pyrido[2,3-b][1,4,5]oxathiazepin]-2′(3′H)-yl)methyl)phenyl)propanoic Acid], for which the EC50 in test [1] came to 1.9 nM. Further, the Kd in test [2] is under 1 nM.

`Cc1ccc([C@@H](CC(=O)O)c2cc(OC(F)F)c3c(c2)nnn3C)cc1CN1C[C@H]2CCCN2c2ncccc2S1(=O)=O` (single isomer, unassigned) [Example 248, (*R)-3-(7-(Difluoromethoxy)-1-methyl-1H-benzo[d][1,2,3]triazol-5-yl)-3-(3-(((R)-5,5-dioxido-7a,8,9,10-tetrahydropyrido[2,3-f]pyrrolo[2,1-d][1,2,5]thiadiazepin-6(7H)-yl)methyl)-4-methylphenyl)propanoic Acid] had an EC50 in test [1] of 48.6 nM. The Kd in test [2] is under 1 nM.

`Cc1cnc([C@@H](c2ccn3c(C(F)F)nnc3c2C)C(C)(C)C(=O)O)cc1CN1CC2(CCOCC2)Oc2nc(OCCN3CCCCC3)c(C)cc2S1(=O)=O` (single isomer, unassigned) [Example 642, (*S)-3-(3-(Difluoromethyl)-8-methyl-[1,2,4]triazolo[4,3-a]pyridin-7-yl)-2,2-dimethyl-3-(5-methyl-4-((8′-methyl-1′,1′-dioxido-7′-(2-(piperidin-1-yl)ethoxy)-2,3,5,6-tetrahydrospiro[pyran-4,4′-pyrido[2,3-b][1,4,5]oxathiazepin]-2′(3′H)-yl)methyl)pyridin-2-yl)propanoic Acid] showed an EC50 in test [1] of 36.6 nM. In addition, the Kd in test [2] is under 1 nM.
